Laboratory results reported in US8361998B2, “Compounds and their use as IKACh blockers” (AstraZeneca AB, priority 2010, dated 2013).
pIC50: −log10 of the molar value.

target: T1, human cardiac ion channel proteins hKir3.1/Kir3.4 (Homo sapiens, UniProt P48544+P48549); assay: Atomic Absorption Screening (AAS) Rb efflux assay of hKir3.1/Kir3.4 block, carbachol/high K+ stimulated, 10-pt or 7-pt CR; format: cell-based; conditions: 7-pt CR (0.037 to 27 μmol/L), AAS Rb efflux, CHO-K1 cells expressing hKir3.1/Kir3.4; mean of >3 replicates; read-out: IKACh IC50 7-pt CR, AAS
T1 construct: expressed in transfected cells
T1 sequence (P48549 1-501): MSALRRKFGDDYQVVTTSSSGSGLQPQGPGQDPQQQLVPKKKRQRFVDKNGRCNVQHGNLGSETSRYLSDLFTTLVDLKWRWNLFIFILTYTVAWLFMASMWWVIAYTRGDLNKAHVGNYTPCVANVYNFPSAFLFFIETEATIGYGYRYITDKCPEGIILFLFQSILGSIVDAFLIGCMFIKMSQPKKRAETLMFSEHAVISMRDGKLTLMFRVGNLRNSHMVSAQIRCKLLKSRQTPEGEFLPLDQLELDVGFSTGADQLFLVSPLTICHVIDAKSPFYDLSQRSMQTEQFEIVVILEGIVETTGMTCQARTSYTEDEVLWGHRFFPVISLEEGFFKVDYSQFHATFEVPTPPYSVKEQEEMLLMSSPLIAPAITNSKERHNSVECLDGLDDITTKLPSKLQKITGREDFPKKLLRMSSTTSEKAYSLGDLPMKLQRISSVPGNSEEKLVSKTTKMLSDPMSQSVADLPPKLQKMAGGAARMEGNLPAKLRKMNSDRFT
T1 sequence (P48544 1-419): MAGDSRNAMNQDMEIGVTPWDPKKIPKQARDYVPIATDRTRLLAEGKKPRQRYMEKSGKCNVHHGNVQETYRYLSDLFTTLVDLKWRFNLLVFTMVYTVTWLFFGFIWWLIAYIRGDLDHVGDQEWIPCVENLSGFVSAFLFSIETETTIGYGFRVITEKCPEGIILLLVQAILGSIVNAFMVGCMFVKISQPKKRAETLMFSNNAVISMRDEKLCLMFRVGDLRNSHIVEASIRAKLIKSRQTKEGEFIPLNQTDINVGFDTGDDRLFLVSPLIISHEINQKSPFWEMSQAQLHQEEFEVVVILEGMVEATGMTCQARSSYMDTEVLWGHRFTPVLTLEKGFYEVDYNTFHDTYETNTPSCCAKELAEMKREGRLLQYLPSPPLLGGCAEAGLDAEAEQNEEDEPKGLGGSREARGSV
In short: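 CHO-K1 cells stably co-expressing human Kir3.1/Kir3.4 were Rb-loaded for 3 h at 37° C, preincubated with compound 5 min at RT, then stimulated 10 min with 10 μM carbachol plus 20 mM KCl (final). Supernatant Rb was measured by atomic absorption. Compounds ran at 0.003–67 μmol/L (10-pt) or 0.037–27 μmol/L (7-pt), threefold dilutions; IC50s are means of >4 or >3 replicates respectively.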

Row | pIC50 | SMILES
1 | 4.92 | CC(C)[C@@H](CN1CCCC1)N(C)C(=O)c1cc(F)c(F)c(F)c1 [Example 16.21, (S)-3,4,5-Trifluoro-N-methyl-N-(3-methyl-1-(pyrrolidin-1-yl)butan-2-yl)benzamide]
2 | 5.26 | Cc1ccc(C(=O)N(C)[C@H](CN2CC[C@H](O)C2)C(C)C)cc1 [Example 16.43, N-[(1S)-1-{[(3S)-3-Hydroxypyrrolidin-1-yl]methyl}-2-methylpropyl]-N,4-dimethylbenzamide]
3 | 5.32 | CC(C)[C@@H](CN1CCCCC1)N(C)C(=O)c1ccc(F)cc1Cl [Example 16.26, 2-Chloro-4-fluoro-N-methyl-N-[(1S)-2-methyl-1-(piperidin-1-yl-methyl)propyl]benzamide]
4 | 4.85 | CC(C)[C@@H](CN1CCCCC1)N(C)C(=O)c1cccc(Cl)c1 [Example 16.37, (S)-3-Chloro-N-methyl-N-(3-methyl-1-(piperidin-1-yl)butan-2-yl)benzamide]
5 | 5.55 | Cc1cc(C(=O)N(C)[C@H](CN2CCCCC2)C(C)C)ccc1Cl [Example 16.25, 4-Chloro-N,3-dimethyl-N-[(1S)-2-methyl-1-(piperidin-1-ylmethyl)propyl]benzamide]
6 | 5.41 | CC(C)[C@@H](CN1CCCC1)N(C)C(=O)c1cc(F)cc(F)c1F [Example 16.9, (S)-2,3,5-Trifluoro-N-methyl-N-(3-methyl-1-(pyrrolidin-1-yl)butan-2-yl)benzamide]
7 | 5.40 | CC(C)[C@@H](CN1CCCCC1)N(C)C(=O)c1ccc(Br)cc1 [Example 16.27, 4-Bromo-N-methyl-N-[(1S)-2-methyl-1-(piperidin-1-ylmethyl)propyl]benzamide]
8 | 5.40 | CC(C)[C@@H](CN1CCCCC1)N(C)C(=O)c1cccc(C(F)(F)F)c1 [Example 16.32, N-Methyl-N-[(1S)-2-methyl-1-(piperidin-1-ylmethyl)propyl]-3-(trifluoromethyl)-benzamide]

Row | SMILES | pIC50
9 | CC(C)[C@@H](CN1CCCC1)N(C)C(=O)c1cccc(Cl)c1 [Example 16.48, (S)-3-Chloro-N-methyl-N-(3-methyl-1-(pyrrolidin-1-yl)butan-2-yl)benzamide] | 5.38
10 | CC(C)[C@@H](CN1CCCC1)N(C)C(=O)c1cccc(C(F)(F)F)c1 [Example 16.10, (S)—N-Methyl-N-(3-methyl-1-(pyrrolidin-1-yl)butan-2-yl)-3-(trifluoromethyl)benzamide] | 5.59

same assay, conditions: 10-pt CR (0.003 to 67 μmol/L), AAS Rb efflux, CHO-K1 cells expressing hKir3.1/Kir3.4; mean of >4 replicates; read-out: IKACh IC50 10-pt CR, AAS

Row | pIC50 | SMILES
11 | 5.41 | CN(C(=O)c1ccc(F)c(F)c1)[C@@H](CN1CC(O)C1)C1CCC1 [Example 35.7, N-[(1R)-1-Cyclobutyl-2-(3-hydroxyazetidin-1-yl)ethyl]-3,4-difluoro-N-methylbenzamide]
12 | 5.07 | CC(C)[C@@H](CN1CC(C)(O)C1)N(C)C(=O)c1ccc(Cl)cc1 [Example 9.7, (S)-4-Chloro-N-(1-(3-hydroxy-3-methylazetidin-1-yl)-3-methyl-butan-2-yl)-N-methylbenzamide]
13 | 5.72 | COC[C@@H]1CCCN1C[C@H](C(C)C)N(C)C(=O)c1ccc(OC)cc1 [Example 3.18, 4-Methoxy-N-((S)-1-((S)-2-(methoxymethyl)pyrrolidin-1-yl)-3-methylbutan-2-yl)-N-methylbenzamide]
14 | 4.82 | CC(C)[C@@H](CN1CCCCC1)N(C)C(=O)c1cccc(Cl)c1 [Example 16.37, (S)-3-Chloro-N-methyl-N-(3-methyl-1-(piperidin-1-yl)butan-2-yl)benzamide]
15 | 6.37 | CCC[C@@H](CN1CC(OCC)C1)N(C)C(=O)c1ccc(Cl)cc1 [Example 31.1, (S)-4-Chloro-N-(1-(3-ethoxyazetidin-1-yl)pentan-2-yl)-N-methylbenzamide]
16 | 4.85 | CN(C(=O)c1ccc(C#N)cc1)[C@H](CN1CC(O)(C2CC2)C1)C1CC1 [Example 9.4, (S)-4-Cyano-N-(1-cyclopropyl-2-(3-cyclopropyl-3-hydroxyazetidin-1-yl)ethyl)-N-methylbenzamide]
17 | 4.92 | CC[C@H](C)[C@@H](CN1CC(O)C1)N(C)C(=O)c1ccc(C#N)cc1 [Example 29.5, 4-Cyano-N-((2S,3S)-1-(3-hydroxyazetidin-1-yl)-3-methylpentan-2-yl)-N-methylbenzamide]
18 | 4.96 | CCCC[C@@H](CN1CC(O)C1)N(C)C(=O)c1ccc(O)cc1 [Example 33.6, 4-Hydroxy-N-[(2S)-1-(3-hydroxyazetidin-1-yl)hexan-2-yl]-N-methylbenzamide]
19 | 4.85 | CC(C)[C@@H](CN1CCCC1)N(C)C(=O)c1cc(F)cc(F)c1F [Example 16.9, (S)-2,3,5-Trifluoro-N-methyl-N-(3-methyl-1-(pyrrolidin-1-yl)butan-2-yl)benzamide]
20 | 5.03 | CC[C@H](C)C(CN1CC(O)C1)N(C)C(=O)c1ccc(F)c(F)c1 (stereo in doubt) [Example 29.1, 3,4-Difluoro-N-((2S,3S)-1-(3-hydroxyazetidin-1-yl)-3-methylpentan-2-yl)-N-methylbenzamide]
21 | 5.48 | CCC[C@@H](CN1CC(O)C1)N(C(=O)c1ccc(Cl)cc1)C(C)C [Example 34.1, 4-Chloro-N-[(2S)-1-(3-hydroxyazetidin-1-yl)pentan-2-yl]-N-(propan-2-yl)benzamide]
22 | 5.57 | CC[C@H](C)[C@@H](CN1CCCC1)N(C)C(=O)c1ccc(F)c(C)c1 [Example 2.5, 4-Fluoro-N,3-dimethyl-N-((2S,3S)-3-methyl-1-(pyrrolidin-1-yl)pentan-2-yl)benzamide]
23 | 5.40 | CC[C@@H](CN1CC(O)C1)N(C)C(=O)c1ccc(Br)cc1 [Example 42, (S)-4-Bromo-N-(1-(3-hydroxyazetidin-1-yl)butan-2-yl)-N-methylbenzamide]
24 | 5.06 | CN(C(=O)c1ccc(OC(F)F)cc1)[C@@H](CN1CC(O)C1)C1CCC1 [Example 35.3, N-[(1R)-1-Cyclobutyl-2-(3-hydroxyazetidin-1-yl)ethyl]-4-(difluoromethoxy)-N-methylbenzamide]
25 | 6.10 | CCC[C@@H](CN1CC(O)C1)N(C)C(=O)c1ccc(F)c(Cl)c1 [Example 8.3, (S)-3-Chloro-4-fluoro-N-(1-(3-hydroxyazetidin-1-yl)pentan-2-yl)-N-methylbenzamide]
26 | 5.01 | CCC[C@H](CN1CC(O)C1)N(C)C(=O)c1ccc(Cl)cc1 [Example 37, 4-Chloro-N-[(2R)-1-(3-hydroxyazetidin-1-yl)pentan-2-yl]-N-methylbenzamide]

Row | SMILES | pIC50
27 | CN(C(=O)c1ccc(Br)cc1)C(C)(C)CN1CCCC1 [Example 16.7, 4-Bromo-N-methyl-N-(2-methyl-1-(pyrrolidin-1-yl)propan-2-yl)benzamide] | 4.85
28 | CCN(C(=O)c1ccc(Cl)cc1)[C@H](CN1CCCC1)C(C)C [Example 15.3, (S)-4-Chloro-N-ethyl-N-(3-methyl-1-(pyrrolidin-1-yl)butan-2-yl)benzamide] | 5.13
29 | CN(C(=O)c1ccc(Br)cc1)[C@H](CN1CCCC1)C(C)(C)C [Example 2.2, (S)-4-Bromo-N-(3,3-dimethyl-1-(pyrrolidin-1-yl)butan-2-yl)-N-methylbenzamide] | 4.85
30 | CC[C@H](C)[C@@H](CN1CCCC1)N(C)C(=O)c1ccc(Cl)cc1 [Example 2.3, 4-Chloro-N-methyl-N-((2S,3S)-3-methyl-1-(pyrrolidin-1-yl)pentan-2-yl)benzamide] | 5.80

same assay, conditions: printed as IC50 >67 μM in the 10-pt CR assay or IC50 >27 μM in the 7-pt CR assay; assay format per compound not stated; read-out: IC50

Row | pIC50 | SMILES
31 | < 4.57 | CC(C)[C@@H](CN1CC[C@H](O)C1)N(C)C(=O)c1cc(F)cc(F)c1F [2,3,5-Trifluoro-N-[(1S)-1-{[(3S)-3-hydroxypyrrolidin-1-yl]methyl}-2-methylpropyl]-N-methylbenzamide]
32 | < 4.57 | CC(C)[C@@H](CN1CCCC1)N(C)C(=O)c1ccc(F)cc1 [4-Fluoro-N-methyl-N-[(1S)-2-methyl-1-(pyrrolidin-1-ylmethyl)propyl]benzamide]
33 | < 4.57 | CC(C)[C@@H](CN1CCC(F)(F)C1)N(C)C(=O)c1ccc(Br)cc1 [(S)-4-Bromo-N-(1-(3,3-difluoropyrrolidin-1-yl)-3-methylbutan-2-yl)-N-methylbenzamide]
34 | < 4.57 | CC(C)[C@H](CN1CCCC1)N(C)C(=O)c1cccc(C#N)c1 [3-Cyano-N-methyl-N-[(1R)-2-methyl-1-(pyrrolidin-1-ylmethyl)propyl]benzamide]

Row | SMILES | pIC50
35 | CC(C)[C@@H](CN1CCCC1)N(C)C(=O)c1ccccc1 [N-Methyl-N-[(1S)-2-methyl-1-(pyrrolidin-1-ylmethyl)propyl]benzamide] | < 4.57
36 | CC(C)[C@H](CN1CCCC1)N(C)C(=O)c1ccccc1OC(F)(F)F [N-Methyl-N-[(1R)-2-methyl-1-(pyrrolidin-1-ylmethyl)propyl]-2-(trifluoromethoxy)benzamide] | < 4.57
